Measured values from patent US20230295201A1 (Gilead Sciences, Inc., priority 2020, published 2023).
Where two headings read alike, the source gives them in different places.

How the values were obtained:
Format in all cases: cell-based
RSV strain A2 = assay: RSV HEp-2 EC50 (infectious cytopathic cell protection assay); conditions: HEp-2 cells, RSV A2, 4 days, read-out: RSV HEp-2 EC50
In short: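 Percent inhibition of RSV-induced cytopathic effect came from remaining cell viability (CellTiter-Glo luminescence) after 4 days at 37° C. Compounds in 3-fold serial dilutions were exposed to an infectious mix of titered A2 virus and HEp-2 cells at 50,000/ml, with 0% and 100% inhibition control standards.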

HRV16 = HRV16 HELA EC50 (cytopathic effect in H1-HeLa cells)
In short: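 Read-out is luminescent cell viability (CellTiter-Glo) after 96 h of infection at 33 °C, scaled between uninfected and infected-untreated wells. Before infection with titrated virus, compounds went onto H1-HeLa cells as triplicate 3-fold dilution series.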

DENV2 replicon = assay: DENV-2 Huh-7 Rep EC50 (replicon luminescence); conditions: read-out: DENV-2 Huh-7 Rep EC50
In short: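 EC50 derived from luminescence dose-response, normalised to DMSO-only 0% inhibition wells, after 1.5 h with EnduRen substrate. Compounds were first exposed for 48 h at 37° C to DENV2 replicon Huh-7 cells (5,000/well).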

RSV A2 = assay: RSV NHBE EC50 (RSV A2 antiviral assay in normal human bronchial epithelial cells); conditions: NHBE cells, RSV A2, 4 days, read-out: RSV NHBE EC50
[1] = human respiratory syncytial virus, HEp-2, 96 h
[2] = 96 h, H1-HeLa cells, 33° C., read-out: HRV16 HELA EC50
[3] = Dengue virus, DENV2, Huh-7, 48 h, Huh-7 replicon cells, 48 hours
[4] = human respiratory syncytial virus, NHBE, 96 h
[5] = human respiratory syncytial virus, 96 h
[6] = H1-HeLa cells, 96 h, 33° C.; read-out: HRV16 HELA EC50
[7] = Dengue virus, DENV2, Huh-7, 48 h

| SMILES | EC50 (RSV strain A2; [1]) | EC50 (HRV16; [2]) | EC50 (DENV2 replicon; [3]) | EC50 (RSV A2; [4]) | EC50 (RSV strain A2; [5]) | EC50 (HRV16; [6]) | EC50 (DENV2 replicon; [7]) | EC50 (RSV A2; [5]) | EC50 (RSV strain A2) | EC50 (DENV2 replicon; Huh-7 replicon cells, 48 hours) | EC50 (RSV A2) |
| --- | --- | --- | --- | --- | --- | --- | --- | --- | --- | --- | --- |
| CCC(CC)COC(=O)[C@H](Cc1ccccc1)NP(=O)(OC[C@@]1(C#N)O[C@@H](c2ccc3c(N)ncnn23)[C@H](O)[C@@H]1O)Oc1ccccc1 (stereo partly drawn) [Example 81, (2S)-2-ethylbutyl 2-(((((2R,3S,4R,5S)-5-(4-aminopyrrolo[2,1-f][1,2,4]triazin-7-yl)-2-cyano-3,4-dihydroxytetrahydrofuran-2-yl)methoxy)(phenoxy)phosphoryl)amino)-3-phenylpropanoate] | 3.57 µM | 3.37 µM | 38.9 µM | 2.65 µM |  |  |  |  |  |  |  |
| CCOC(=O)[C@H](C)NP(=O)(N[C@@H](C)C(=O)OCC)OC[C@@]1(C#N)O[C@@H](c2ccc3c(N)ncnn23)[C@H](O)[C@@H]1O [Example 35, ((2R,3S,4R,5S)-5-(4-aminopyrrolo[2,1-f][1,2,4]triazin-7-yl)-2-cyano-3,4-dihydroxytetrahydrofuran-2-yl)methyl bis-ethyl L-alaninate phosphate] |  |  |  |  | 4.07 µM | 29.6 µM | > 50 µM | 1.31 µM |  |  |  |
| N#C[C@]1(COP(=O)(NC2(C(=O)OC3CCCCC3)CCC2)Oc2ccccc2)O[C@@H](c2ccc3c(N)ncnn23)[C@H](O)[C@@H]1O (stereo partly drawn) [Example 107, cyclohexyl 1-(((((2R,3S,4R,5S)-5-(4-aminopyrrolo[2,1-f][1,2,4]triazin-7-yl)-2-cyano-3,4-dihydroxytetrahydrofuran-2-yl)methoxy)(phenoxy)phosphoryl)amino)cyclobutanecarboxylate] | > 14.2 µM | > 35.7 µM | > 50 µM | > 2.89 µM |  |  |  |  |  |  |  |
| CC(C)OC(=O)[C@H](C)N[P@](=O)(OC[C@@]1(C#N)O[C@@H](c2ccc3c(NC(=O)C(C)C)ncnn23)[C@H](O)[C@@H]1O)Oc1ccccc1 [Example 234, isopropyl ((S)-(((2R,3S,4R,5S)-2-cyano-3,4-dihydroxy-5-(4-isobutyramidopyrrolo[2,1-f][1,2,4]triazin-7-yl)tetrahydrofuran-2-yl)methoxy)(phenoxy)phosphoryl)-L-alaninate] | 0.696 µM | 6.87 µM | 36.4 µM | 2.41 µM |  |  |  |  |  |  |  |
| CC(C)OC(=O)[C@H](C)NP(=O)(OCCS(C)(=O)=O)OC[C@@]1(C#N)O[C@@H](c2ccc3c(N)ncnn23)[C@H](O)[C@@H]1O (stereo partly drawn) [Example 42, isopropyl ((((2R,3S,4R,5S)-5-(4-aminopyrrolo[2,1-f][1,2,4]triazin-7-yl)-2-cyano-3,4-dihydroxytetrahydrofuran-2-yl)methoxy)(2-(methylsulfonyl)ethoxy)phosphoryl)-L-alaninate] |  |  |  |  | 25.4 µM | > 50 µM | 39.2 µM | ≥ 5 µM |  |  |  |
| CC1(C(=O)OCCNP(=O)(OC[C@@]2(C#N)O[C@@H](c3ccc4c(N)ncnn34)[C@H](O)[C@@H]2O)Oc2ccccc2)CC1 (stereo partly drawn) [Example 141, 2-(((((2R,3S,4R,5S)-5-(4-aminopyrrolo[2,1-f][1,2,4]triazin-7-yl)-2-cyano-3,4-dihydroxytetrahydrofuran-2-yl)methoxy)(phenoxy)phosphoryl)amino)ethyl 1-methylcyclopropane-1-carboxylate] | 2.01 µM | 14.9 µM | > 50 µM | 0.067 µM |  |  |  |  |  |  |  |
| CC[C@H](N[P@@](=O)(OC[C@@]1(C#N)O[C@@H](c2ccc3c(N)ncnn23)[C@H](O)[C@@H]1O)Oc1ccccc1)C(=O)OCC(C)(C)C [Example 158] |  |  |  |  |  | 13 µM |  |  | 0.969 µM | > 50 µM | 1.27 µM |
| N#C[C@@]12COP(=O)(OC3CCCC3)O[C@H]1[C@@H](O)[C@H](c1ccc3c(N)ncnn13)O2 (stereo partly drawn) [Example 161, (4aR,6S,7S,7aS)-6-(4-aminopyrrolo[2,1-f][1,2,4]triazin-7-yl)-2-(cyclopentyloxy)-7-hydroxydihydro-4H-furo[3,2-d][1,3,2]dioxaphosphinine-4a(6H)-carbonitrile 2-oxide] |  |  |  |  | 6.48 µM | 13.8 µM | > 50 µM | 1.49 µM |  |  |  |
| C[C@H](NP(=O)(OC[C@@]1(C#N)O[C@@H](c2ccc3c(N)ncnn23)[C@H](O)[C@@H]1O)Oc1ccccc1)C(=O)OC1CCCN(CC(F)(F)F)CC1 (stereo partly drawn) [Example 204, 1-(2,2,2-trifluoroethyl)azepan-4-yl ((((2R,3S,4R,5S)-5-(4-aminopyrrolo[2,1-f][1,2,4]triazin-7-yl)-2-cyano-3,4-dihydroxytetrahydrofuran-2-yl)methoxy)(phenoxy)phosphoryl)alaninate] | 0.463 µM | 1.38 µM | 27.5 µM | 0.628 µM |  |  |  |  |  |  |  |
| C[C@H](NP(=O)(OC[C@@]1(C#N)O[C@@H](c2ccc3c(N)ncnn23)[C@H](O)[C@@H]1O)Oc1ccccc1)C(=O)OC1CCC(C)(C)CC1 (stereo partly drawn) [Example 183, 4,4-dimethylcyclohexyl ((((2R,3S,4R,5S)-5-(4-aminopyrrolo[2,1-f][1,2,4]triazin-7-yl)-2-cyano-3,4-dihydroxytetrahydrofuran-2-yl)methoxy)(phenoxy)phosphoryl)-L-alaninate] | 0.08 µM | 0.173 µM | 17.3 µM | 1.2 µM |  |  |  |  |  |  |  |
| CCCCCCCCCCCCCCCCCCOC[C@H](COC(=O)C(C)NP(=O)(OC[C@@]1(C#N)O[C@@H](c2ccc3c(N)ncnn23)[C@H](O)[C@@H]1O)Oc1ccccc1)OCc1ccccc1 (stereo partly drawn) [Example 190, (R)-2-(benzyloxy)-3-(octadecyloxy)propyl ((((2R,3S,4R,5S)-5-(4-aminopyrrolo[2,1-f][1,2,4]triazin-7-yl)-2-cyano3,4-dihydroxytetrahydrofuran-2-yl)methoxy)(phenoxy)phosphoryl)alaninate] | 0.136 µM | 2.64 µM | > 100 µM | 2.06 µM |  |  |  |  |  |  |  |
| N#C[C@]1(COP(=O)(NCC(=O)OC2CCCC2)Oc2ccccc2)O[C@@H](c2ccc3c(N)ncnn23)[C@H](O)[C@@H]1O (single isomer, unassigned) [Example 113] | 0.611 µM | 2.64 µM | 42.7 µM | 0.352 µM |  |  |  |  |  |  |  |
| Cc1oc(=O)oc1COC(=O)C1(NP(=O)(OC[C@@]2(C#N)O[C@@H](c3ccc4c(N)ncnn34)[C@H](O)[C@@H]2O)Oc2ccccc2)CCC1 (stereo partly drawn) [Example 125, (5-methyl-2-oxo-1,3-dioxol-4-yl)methyl 1-(((((2R,3S,4R,5S)-5-(4-aminopyrrolo[2,1-f][1,2,4]triazin-7-yl)-2-cyano-3,4-dihydroxytetrahydrofuran-2-yl)methoxy)(phenoxy)phosphoryl)amino)cyclobutane-1-carboxylate] | 3.3 µM | 7.65 µM | > 100 µM | 3.65 µM |  |  |  |  |  |  |  |
| CCCCCCCCCCCCCCCCOC(=O)[C@H](C)NP(=O)(OC[C@@]1(C#N)O[C@@H](c2ccc3c(N)ncnn23)[C@H](O)[C@@H]1O)Oc1ccccc1 (stereo partly drawn) [Example 199, hexadecyl ((((2R,3S,4R,5S)-5-(4-aminopyrrolo[2,1-f][1,2,4]triazin-7-yl)-2-cyano-3,4-dihydroxytetrahydrofuran-2-yl)methoxy)(phenoxy)phosphoryl)-L-alaninate] | 1.12 µM | 0.738 µM | 37.8 µM | 0.033 µM |  |  |  |  |  |  |  |
| CC[C@H](N[P@](=O)(OC[C@@]1(C#N)O[C@@H](c2ccc3c(N)ncnn23)[C@H](O)[C@@H]1O)Oc1ccccc1)C(=O)OC1CCCCC1 [Example 105] |  |  |  |  |  | 16.9 µM |  |  | 3.44 µM | > 50 µM | 2.02 µM |
| CCOC(=O)C1(NP(=O)(OC[C@@]2(C#N)O[C@@H](c3ccc4c(N)ncnn34)[C@H](O)[C@@H]2O)Oc2ccccc2)CC1 (mixture of isomers) [Example 106, ethyl 1-(((((2R,3S,4R,5S)-5-(4-aminopyrrolo[2,1-f][1,2,4]triazin-7-yl)-2-cyano-3,4-dihydroxytetrahydrofuran-2-yl)methoxy)(phenoxy)phosphoryl)amino)cyclopropanecarboxylate] | > 42.5 µM | > 100 µM | > 100 µM | > 5 µM |  |  |  |  |  |  |  |
| N#C[C@]1(COP(=O)(NCC(=O)OC2CCCC2)Oc2ccccc2)O[C@@H](c2ccc3c(N)ncnn23)[C@H](O)[C@@H]1O (mixture of isomers) [Example 112, cyclopentyl 2-(((((2R,3S,4R,5S)-5-(4-aminopyrrolo[2,1-f][1,2,4]triazin-7-yl)-2-cyano-3,4-dihydroxytetrahydrofuran-2-yl)methoxy)(phenoxy)phosphoryl)amino)acetate] | 1.41 µM | 3.69 µM | > 50 µM | 0.464 µM |  |  |  |  |  |  |  |
| C[C@H](NP(=O)(N[C@@H](C)C(=O)OCC(C)(C)C)OC[C@@]1(C#N)O[C@@H](c2ccc3c(N)ncnn23)[C@H](O)[C@@H]1O)C(=O)OCC(C)(C)C [Example 182] |  |  |  |  | 1.17 µM | 8.56 µM | > 50 µM | 2.09 µM |  |  |  |
